Reference: patent publication US9963433B2, “Anticancer drugs including the chemical structures of an androgen receptor ligand and a histone deacetylase inhibitor” (Wayne State University, priority 2016, dated 2018)

Assays:
Hsp90 = assay: Western blot of Hsp90 protein in C4-2 cells; conditions: 1 μM to 10 μM, 24 h, relative to GAPDH, FIG. 4B
Protocol: (§1) Cells were then harvested for western blot analysis using antibody to AR (4A), HSP90 (4B), Acetyl-Lysine (4C) or GAPDH (loading control). ImageJ software was used to determine the intensities of the bands relative to the vehicle control for each protein. The values were then divided by the values for GAPDH within the same samples.
(§2) Western Blot Analysis. Cells were washed once with phosphate buffered saline (PBS) and then lysed with RIPA buffer (150 mM NaCl, 1% Nonidet P-40, 0.5% sodium deoxycholate, 0.1% SDS, 50 mM Tris of pH 8.0) containing a protease inhibitor cocktail (Pierce, Thermo Fisher Scientific). The cell lysates were then incubated on ice for 40 minutes. Total protein concentrations were estimated using the Bradford Assay (Bio-Rad). Protein samples (10-40 ug) were heated at 95° C. for 5 minutes and resolved by electrophoresis on 8% polyacrylamide-SDS gels and electrophoretically transferred to PVDF membranes (Millipore, Billerica, Mass.). The membranes were then probed overnight at 4° C. with the appropriate primary antibody followed by the appropriate horseradish peroxidase-conjugated secondary antibody.

[1] = system: HDACs from Hela cell nuclear extract; format: biochemical; conditions: for IC50: cell-free, FIG. 2A, read-out: IC50, inhibition of HDACs enriched in the Hela nuclear extract
Protocol: FIGS. 2A-2F show measurement of intrinsic and in situ HDACi activities. […] IC50 values were calculated from nonlinear regression plots using GraphPad Prism5 software. […] Recombinant HDAC6 was incubated with each drug at the indicated concentrations. IC50 values were calculated from nonlinear regression plots using GraphPad Prism5 software.
HDAC activity assay. In vitro HDAC inhibition was measured by using the HDAC fluorimetric assay/drug discovery Kit (Enzo Life Sciences, BML-AK500) and the HDAC6 fluorometric drug discovery kit (Enzo Life Sciences, BML-AK516) following the manufacturer's protocols and instructions. IC50 values were calculated from nonlinear […] plots using GraphPad Prism5 software.
HDAC1 and HDAC2 are enriched in nuclear extracts whereas HDAC6 is a cytosolic enzyme that is the principal modulator of the acetylation status of Hsp90. […] Again, TSA served as the positive control in FIG. 2D.

DLC1 mRNA in LNCaP cells = assay: In situ HDACi activity: DLC1 mRNA in LNCaP cells; format: cell-based; conditions: 10 μM, 48 h, normalized to GAPDH mRNA, FIG. 2E
Protocol: FIGS. 2A-2F show measurement of intrinsic and in situ HDACi activities. […]. IC50 values were calculated from nonlinear regression plots using GraphPad Prism5 software. (2B) Enz, 1002 and 3-52 were tested against HeLa cell nuclear extract at 10 μM and 25 μM and TSA (1 μM) was used as positive control. […] Recombinant HDAC6 was incubated with each drug at the indicated concentrations. IC50 values were calculated from nonlinear regression plots using GraphPad Prism5 software. (2D) Enz, 1002 and 3-52 were tested against recombinant HDAC6 at 10 μM and 25 μM and TSA (1 μM) was used as positive control. […]
Cell Culture and Reagents. LNCaP and 22Rv1 cell lines were from American Type Culture Collection (Manassas, Va.). C4-2 cells were kindly provided by Dr. Edwin Sanchez (University of Toledo). LNCaP and C4-2 cells were routinely grown at 37° C. in 5% CO2 in RPMI 1640 medium supplemented with 10% FBS (Invitrogen); 100 units/ml penicillin, 100 μg/ml streptomycin, 2 mM L-glutamine mixture (Invitrogen); and sodium pyruvate (1 mM) (Invitrogen). 22Rv1 cells were grown in RPMI 1640 medium supplemented with 10% FBS (Invitrogen); 100 units/ml penicillin, 100 μg/ml streptomycin, 2 mM L-glutamine mixture (Invitrogen). Affinity-purified rabbit anti-human antibody to AR (sc-816) and mouse anti-human antibody to GAPDH (sc-47724) were purchased from Santa Cruz Biotechnology (Santa Cruz, Calif.). Affinity-purified rabbit anti-human antibody to Hsp90 (C45G5) #4877 and rabbit anti-human antibody to acetylated lysine #9441 were purchased from Cell Signaling Technology. R1881 was kindly provided by Dr. Stephan Patrick (Karmanos Cancer Institute). All experiments were conducted using phenol-red free growth media. For hormone depletion, cells were grown in phenol-red free RPMI 1640 medium supplemented with 10% charcoal stripped FBS (Sigma-Aldrich) which was heat inactivated at 56° C. for thirty minutes, and a mixture of 100 units/ml penicillin, 100 μg/ml streptomycin and 2 mM L-glutamine for 96 h.
RNA isolation, Reverse Transcription, and Real Time PCR. Total RNA was isolated from cells using the RNeasy Mini Kit (Qiagen). Reverse transcription PCR was then performed using 500 ng of total RNA with random primers and using the high-capacity complementary DNA Archive kit (Applied Biosystems). The complementary DNA from this reaction was measured using quantitative real time PCR using the StepONE Plus Real Time PCR system (Life Technologies Corporation, Carlsbad, Calif.). All reactions were performed in triplicate and normalized to glyceraldehyde-3-phosphate-dehydrogenase values in the same samples. All primers and Taqman probes were purchased from the applied Biosystems inventory (Invitrogen) (Patki et al., 2015).
. […]

[2] = system: AR chromatin association at KLK3 ARE enhancer elements; assay: ChIP of AR at KLK3 enhancer in C4-2 cells; conditions: compound 10 μM, R1881 1 nM or 10 nM, 2 h, FIG. 3C
Protocol: (3C) C4-2 cells plated in hormone-depleted medium were treated with either vehicle, R1881, or the indicated compound for 2 h. Cells were harvested and subjected to ChIP using AR antibody. Taqman probes targeting ARE enhancer elements associated with the KLK3 gene were used to quantify the immunoprecipitated chromatin.
Chromatin Immunoprecipitation (ChIP). […] The ChIP signals were measured by quantitative real time PCR analysis of the immunoprecipitated products.
As a target site for the ChIP assay, the well-established AR binding enhancer elements located 4 kb upstream of the transcription initiation site of the KLK3 gene was chosen.

AR = target: T1, AR (Homo sapiens, UniProt P10275, T878A); assay: Western blot of AR protein in C4-2 cells; format: cell-based; conditions: 1 μM to 10 μM, 24 h, relative to GAPDH, FIG. 4A
T1 construct: endogenous in cells; host or cells: C4-2 cells
T1 sequence (P10275 1-920 T878A): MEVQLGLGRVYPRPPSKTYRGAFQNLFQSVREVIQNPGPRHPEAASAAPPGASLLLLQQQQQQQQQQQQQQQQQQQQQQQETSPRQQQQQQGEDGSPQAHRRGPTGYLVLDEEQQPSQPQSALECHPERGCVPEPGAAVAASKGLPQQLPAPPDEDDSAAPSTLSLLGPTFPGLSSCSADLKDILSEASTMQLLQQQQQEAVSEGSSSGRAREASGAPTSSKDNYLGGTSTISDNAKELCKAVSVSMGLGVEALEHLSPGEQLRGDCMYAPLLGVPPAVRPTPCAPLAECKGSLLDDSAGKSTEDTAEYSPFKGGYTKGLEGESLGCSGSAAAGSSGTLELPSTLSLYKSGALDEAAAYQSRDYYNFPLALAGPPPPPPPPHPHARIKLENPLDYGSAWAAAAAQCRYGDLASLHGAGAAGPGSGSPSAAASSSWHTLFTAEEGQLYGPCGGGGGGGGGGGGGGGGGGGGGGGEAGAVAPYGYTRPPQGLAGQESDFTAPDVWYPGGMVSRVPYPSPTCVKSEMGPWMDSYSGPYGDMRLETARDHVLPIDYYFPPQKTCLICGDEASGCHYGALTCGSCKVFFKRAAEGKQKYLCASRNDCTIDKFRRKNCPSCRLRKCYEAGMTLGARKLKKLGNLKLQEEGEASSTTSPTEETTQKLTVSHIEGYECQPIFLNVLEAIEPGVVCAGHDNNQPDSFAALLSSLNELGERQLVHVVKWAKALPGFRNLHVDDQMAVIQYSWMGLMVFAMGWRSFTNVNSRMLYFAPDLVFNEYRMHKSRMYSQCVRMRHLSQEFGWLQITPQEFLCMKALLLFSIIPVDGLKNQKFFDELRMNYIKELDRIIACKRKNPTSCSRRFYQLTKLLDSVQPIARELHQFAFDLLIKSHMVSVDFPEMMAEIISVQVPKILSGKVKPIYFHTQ
Protocol: as §1, §2

SMILES: CNC(=O)c1ccc(N2C(=S)N(c3ccc(C#N)c(C(F)(F)F)c3)C(=O)C2(C)C)cc1F [Enz, Enzalutamide, reference compound]
- Hsp90 protein level (degradation) (Hsp90): had no effect
- inhibition of nuclear HDAC activity ([1]; HeLa cell nuclear extract, tested at 10 μM and 25 μM, FIG. 2B): lacked any HDACi activity
- DLC1 mRNA expression (DLC1 mRNA in LNCaP cells): had no effect
- chromatin association of AR (ChIP signal) [2]: basal ChIP signal

SMILES: CC1(C)C(=O)N(c2ccc(C#N)c(C(F)(F)F)c2)C(=S)N1c1ccc(/C=C/C(=O)NO)c(F)c1 [Compound 1005, (E)-3-(4-(3-(4-cyano-3-(trifluoromethyl)phenyl)-5,5-dimethyl-4-oxo-2-thioxoimidazolidin-1-yl)-2-fluorophenyl)-N-hydroxyacrylamide]
- Hsp90 protein level (degradation) (Hsp90): more marked reduction in Hsp90
- IC50 [1]: 2.41 µM
- DLC1 mRNA expression (DLC1 mRNA in LNCaP cells): poor inducers of DLC1 mRNA compared with SAHA
- AR protein level (degradation) (AR): more efficiently induced AR protein degradation

SMILES: CC1(C)C(=O)N(c2ccc(C#N)c(C(F)(F)F)c2)C(=S)N1c1ccc(C(=O)NCCCCCCC(=O)NO)c(F)c1 [Compound 2-75, 4-(3-(4-cyano-3-(trifluoromethyl)phenyl)-5,5-dimethyl-4-oxo-2-thioxoimidazolidin-1-yl)-2-fluoro-N-(7-(hydroxyamino)-7-oxoheptyl)benzamide]
- Hsp90 protein level (degradation) (Hsp90): more marked reduction in Hsp90
- IC50 [1]: 1.08 µM
- DLC1 mRNA expression (DLC1 mRNA in LNCaP cells): poor inducers of DLC1 mRNA compared with SAHA
- AR protein level (degradation) (AR): more efficiently induced AR protein degradation
- chromatin association of AR (ChIP signal) [2]: basal ChIP signal
